Results: ChEMBL document CHEMBL1134953, “Two selective novel triterpene glycosides from sea cucumber, Telenata Ananas: inhibitors of chemokine receptor-5” (Bioorg Med Chem Lett, 2002)

Target: C-C chemokine receptor type 5 (Homo sapiens, UniProt P51681)
Experiment: Inhibitory activity against human CCR5 chemokine receptor (CCR5) expressed in CHO cells
Assay type: cell-based

Chain of C-C chemokine receptor type 5 (P51681 whole entry): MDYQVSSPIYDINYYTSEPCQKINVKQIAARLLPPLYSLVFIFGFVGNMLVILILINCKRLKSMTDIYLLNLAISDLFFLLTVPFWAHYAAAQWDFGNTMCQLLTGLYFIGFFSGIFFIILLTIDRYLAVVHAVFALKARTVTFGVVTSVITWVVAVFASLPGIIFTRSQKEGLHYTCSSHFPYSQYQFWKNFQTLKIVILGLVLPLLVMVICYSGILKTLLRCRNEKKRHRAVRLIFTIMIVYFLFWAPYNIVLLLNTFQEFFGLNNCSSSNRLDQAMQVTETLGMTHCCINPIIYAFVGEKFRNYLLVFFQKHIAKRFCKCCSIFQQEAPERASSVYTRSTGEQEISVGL

Row | SMILES | Ki [µM]
1 | COC1[C@@H](O)C(OC2[C@@H](O)[C@H](O[C@H]3[C@H](O)[C@@H](O)[C@H](O[C@H]4[C@H](O[C@H]5CC[C@]6(C)C7=C[C@H](O)C89C(=O)O[C@@](C)(CCCC(C)C)C8CC[C@@]9(C)C7CCC6C5(C)C)OC[C@@H](O[C@@H]5O[C@H](CO)[C@@H](O)[C@H](OC6O[C@H](CO)[C@@H](O)[C@H](OC)[C@H]6O)[C@H]5O)[C@@H]4O)O[C@@H]3C)O[C@H](CO)[C@H]2O)O[C@H](CO)[C@H]1O (some centres not stated) | 5.1
2 | C[C@H]1O[C@@H](O[C@H]2[C@H](O[C@H]3CC[C@]4(C)C5=C[C@H](O)C67C(=O)O[C@@](C)(C8CCC(C)(C)O8)[C@@]6(O)CC[C@@]7(C)C5CCC4C3(C)C)OC[C@@H](O[C@@H]3O[C@H](CO)[C@@H](O)[C@H](O)[C@H]3O)[C@@H]2O)[C@H](O)[C@@H](O)[C@@H]1O (some centres not stated) | 30
